Values after ≈ are worked out from the molar mass of the structure shown. Read-outs that look alike come from different tables or passages of the source.
How the values were obtained:
Format in all cases: cell-based
[1] = system: Spn1537 S. pneumoniae ermB positive mefA positive; assay: broth dilution MIC, S. pneumoniae Spn1537; conditions: Streptococcus pneumoniae
Outline: (§1)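 Antibacterial activity is reported as MIC by CLSI broth dilution. Panel strains were chosen with a focus on macrolide-resistance mechanisms. Azithromycin control included.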

[2] = system: SA101 S. aureus ATCC29213; assay: broth dilution MIC, S. aureus SA101; conditions: Staphylococcus aureus, ATCC29213, SA101 S. aureus ATCC29213; read-out: MIC
Outline: as §1

[3] = system: Spn1533 S. pneumoniae ermB positive mefA positive; assay: broth dilution MIC, S. pneumoniae Spn1533; conditions: Streptococcus pneumoniae
Outline: as §1

[4] = system: SA557 S. aureus ermA unknown msrA positive; assay: broth dilution MIC, S. aureus SA557; conditions: Staphylococcus aureus; SA557 S. aureus ermA unknown msrA positive; read-out: MIC
Outline: as §1

BS1725 B. subtilis ermC = assay: broth dilution MIC, B. subtilis BS1725; conditions: Bacillus subtilis
Outline: as §1

[5] = system: SA1707 S. aureus ermA negative msrA positive; assay: broth dilution MIC, S. aureus SA1707; conditions: Staphylococcus aureus
Outline: as §1

EC878 E. coli tolC = assay: broth dilution MIC, E. coli EC878; conditions: Escherichia coli
Outline: as §1

EC107 E. coli ATCC25922 = assay: broth dilution MIC, E. coli EC107; conditions: Escherichia coli, read-out: MIC
Outline: as §1

[6] = system: HI175 H. influenzae ATCC49247; assay: broth dilution MIC, H. influenzae HI175; conditions: Haemophilus influenzae
Outline: as §1

[7] = system: SA506 S. aureus ermA positive msrA unknown; assay: broth dilution MIC, S. aureus SA506; conditions: Staphylococcus aureus
Outline: as §1

[8] = system: Spn1509 S. pneumoniae ermB positive mefA negative; assay: broth dilution MIC, S. pneumoniae Spn1509; conditions: Streptococcus pneumoniae; Spn1509 S. pneumoniae ermB positive mefA negative; read-out: MIC
Outline: as §1

[9] = system: Spn 106 S. pneumonia ATCC49619; assay: broth dilution MIC, S. pneumoniae Spn 106; conditions: Streptococcus pneumoniae
Outline: as §1

[10] = system: SA418 S. aureus ermA negative msrA positive; assay: broth dilution MIC, S. aureus SA418; conditions: Staphylococcus aureus
Outline: as §1

[11] = system: SA1708 S. aureus ermA positive msrA negative; assay: broth dilution MIC, S. aureus SA1708; conditions: Staphylococcus aureus
Outline: as §1

HI281 H. influenzae = assay: broth dilution MIC, H. influenzae HI281; conditions: Haemophilus influenzae
From the text: We have collected MIC data for a total of 50 novel macrolides that this platform has produced against over 21 unique strains of B. subtilis, E. coli, S. aureus, S. pneumoniae, and H. influenzae, including several multidrug-resistant strains, with a special focus on macrolide resistant mechanisms (vide supra). Azithromycin was included as a control macrolide. CLSI standard procedures for broth dilution MIC determination were used. […] These genotypes can be constitutive or inducible. The finding that C4-epi (unnatural) isomers of the “azaketolide” macrolide class have enhanced activities relative to C4 natural isomers is very exciting.

[12] = system: Spn160 S. pneumoniae ermB unknown mefA positive; assay: broth dilution MIC, S. pneumoniae Spn160; conditions: Streptococcus pneumoniae; Spn160 S. pneumoniae ermB unknown mefA positive; read-out: MIC
Outline: as §1

EC882 E. coli imp = assay: broth dilution MIC, E. coli EC882; conditions: Escherichia coli
Outline: as §1

[13] = system: BS1723 B. subtilis BS168 WT wild type; assay: broth dilution MIC, B. subtilis BS1723; conditions: Bacillus subtilis, BS1723 B. subtilis BS168 WT wild type; read-out: MIC
Outline: as §1

[14] = system: Spn1427 S. pneumoniae ermB positive mefA negative; assay: broth dilution MIC, S. pneumoniae Spn1427; conditions: Streptococcus pneumoniae
Outline: as §1

[15] = system: SA183 S. aureus ermA positive msrA unknown; assay: broth dilution MIC, S. aureus SA183; conditions: Staphylococcus aureus
Outline: as §1

S. aureus strains = assay: MIC against S. aureus strains (Table M7); conditions: Staphylococcus aureus
Outline: as §1

E. faecalis strains = assay: MIC against E. faecalis strains (Table M8); conditions: Enterococcus faecalis, E. faecalis 29212
K. pneumoniae strains = assay: MIC against K. pneumoniae strains (Table M8); conditions: Klebsiella pneumoniae, K. pneumoniae 10031
A. baumannii strains = assay: MIC against A. baumannii strains (Table M8); conditions: Acinetobacter baumannii, BAA747, A. baumannii BAA747-1
H. influenzae strains = assay: MIC against H. influenzae strains (Table M8); conditions: Haemophilus influenzae
Outline: as §1

E. coli strains = assay: MIC against E. coli strains (Table M7); conditions: Escherichia coli, ATCC25922, E. coli ATCC 25922
Outline: as §1

S. pneumoniae strains = assay: MIC against S. pneumoniae strains (Tables M7, M8); conditions: Streptococcus pneumoniae
From the text: CLSI standard procedures for broth dilution MIC determination were used. […] These genotypes can be constitutive or inducible.

[16] = Spn 106 S. pneumonia ATCC49619, read-out: MIC
[17] = ATCC29213, S. aureus ATCC 29213, read-out: MIC S. aureus (ATCC 29213)
[18] = S. aureus 506, read-out: MIC S. aureus (506)
[19] = S. aureus 1708, read-out: MIC S. aureus (1708)
[20] = USA300, S. aureus USA300, read-out: MIC S. aureus (USA300)
[21] = H. influenzae 49247, read-out: MIC H. influenzae (49247)
[22] = H. influenzae 49766, read-out: MIC H. influenzae (49766)
[23] = S. pneumoniae 160, read-out: MIC S. pneumonae (160)
[24] = S. pneumoniae 1509, read-out: MIC S. pneumoniae (1509)
[25] = S. pneumoniae 1533, read-out: MIC S. pneumoniae (1533)
[26] = S. pneumoniae 1537, read-out: MIC S. pneumoniae (1537)
[27] = S. pneumoniae 49619, read-out: MIC S. pneumoniae (49619)

Structure (SMILES)	MIC [1]	MIC [2]	MIC [3]	MIC [4]	MIC (BS1725 B. subtilis ermC; BS1725 B. subtilis ermC (+ery))	MIC [5]	MIC (EC878 E. coli tolC)	MIC (EC107 E. coli ATCC25922)	MIC [6]	MIC [7]	MIC [8]	MIC [9, 16]	MIC [10]	MIC [11]	MIC (HI281 H. influenzae)	MIC [12]	MIC (EC882 E. coli imp)	MIC [13]	MIC [14]	MIC [15]	other results
CC[C@H]1OC(=O)C(C)(F)C(=O)[C@@H](C)[C@@H](O[C@@H]2OC(C)CC(N(C)C)C2O)[C@](C)(OC)C[C@@H](C)CN[C@H](C)[C@H]2N(CCCCn3cc(-c4ccccn4)nn3)C(=O)O[C@]12C (stereo partly shown) [FSM-20716]	> 32 µg/mL	8 µg/mL (≈ 9.62 µM)	> 32 µg/mL	16 µg/mL (≈ 19.2 µM)	> 32 µg/mL	16 µg/mL (≈ 19.2 µM)	1 µg/mL (≈ 1.2 µM)	> 32 µg/mL	8 µg/mL (≈ 9.62 µM)	> 32 µg/mL	8 µg/mL (≈ 9.62 µM)	0.25 µg/mL (≈ 0.3 µM)	16 µg/mL (≈ 19.2 µM)	32 µg/mL (≈ 38.5 µM)	> 32 µg/mL	0.5 µg/mL (≈ 0.601 µM)	0.25 µg/mL (≈ 0.3 µM)	8 µg/mL (≈ 9.62 µM)	> 32 µg/mL	> 32 µg/mL	MIC (BS1725 B. subtilis ermC; BS1725 B. subtilis ermC (−ery)): 4 µg/mL (≈ 4.81 µM)
CC[C@H]1OC(=O)C(C)(F)C(=O)[C@@H](C)[C@@H](O[C@@H]2OC(C)CC(N(C)C)C2O)[C@](C)(OC)C[C@@H](C)CN[C@H](C)[C@H]2N(CCCCn3cc(-c4cccc(N)c4)nn3)C(=O)O[C@]12C (stereo partly shown) [FSM-20720]	> 32 µg/mL	4 to 8 µg/mL (≈ 4.73 to 9.46 µM)	> 32 µg/mL	8 µg/mL (≈ 9.46 µM)	> 32 µg/mL	16 µg/mL (≈ 18.9 µM)	1 µg/mL (≈ 1.18 µM)	> 32 µg/mL	4 µg/mL (≈ 4.73 µM)	> 32 µg/mL	2 µg/mL (≈ 2.36 µM)	0.125 µg/mL (≈ 0.148 µM)	8 µg/mL (≈ 9.46 µM)	16 µg/mL (≈ 18.9 µM)	32 µg/mL (≈ 37.8 µM)	0.5 µg/mL (≈ 0.591 µM)	1 µg/mL (≈ 1.18 µM)	4 µg/mL (≈ 4.73 µM)	8 µg/mL (≈ 9.46 µM)	> 32 µg/mL	MIC (S. aureus strains; [17]): 4 µg/mL (≈ 4.73 µM); MIC (S. aureus strains; [18]): > 32 µg/mL; MIC (S. aureus strains; [19]): 8 µg/mL (≈ 9.46 µM); MIC (S. aureus strains; [20]): 8 µg/mL (≈ 9.46 µM); MIC (E. faecalis strains): 2 µg/mL (≈ 2.36 µM); MIC (K. pneumoniae strains): 8 µg/mL (≈ 9.46 µM); MIC (A. baumannii strains): > 32 µg/mL; MIC (H. influenzae strains; [21]): 8 µg/mL (≈ 9.46 µM); MIC (H. influenzae strains; [22]): 32 µg/mL (≈ 37.8 µM); MIC (E. coli strains): > 32 µg/mL; MIC (S. pneumoniae strains; [23]): 0.5 µg/mL (≈ 0.591 µM); MIC (S. pneumoniae strains; [24]): 8 µg/mL (≈ 9.46 µM); MIC (S. pneumoniae strains; [25]): > 32 µg/mL; MIC (S. pneumoniae strains; [26]): > 32 µg/mL; MIC (S. pneumoniae strains; [27]): 1 µg/mL (≈ 1.18 µM)
CC[C@H]1OC(=O)C(C)C(=O)[C@@H](C)[C@@H](O[C@@H]2OC(C)CC(N(C)C)C2O)[C@](C)(OC)C[C@@H](C)CN[C@H](C)[C@H]2N(CCCCn3cc(-c4ccccn4)nn3)C(=O)O[C@]12C (stereo partly shown) [FSM-20754]	> 32 µg/mL	2 µg/mL (≈ 2.46 µM)	> 32 µg/mL	4 µg/mL (≈ 4.91 µM)	32 µg/mL (≈ 39.3 µM)	4 µg/mL (≈ 4.91 µM)	0.5 µg/mL (≈ 0.614 µM)	16 µg/mL (≈ 19.7 µM)	2 µg/mL (≈ 2.46 µM)	> 32 µg/mL	4 µg/mL (≈ 4.91 µM)		4 µg/mL (≈ 4.91 µM)	4 µg/mL (≈ 4.91 µM)	8 µg/mL (≈ 9.83 µM)	0.25 µg/mL (≈ 0.307 µM)	0.125 µg/mL (≈ 0.154 µM)	2 µg/mL (≈ 2.46 µM)	> 32 µg/mL	> 32 µg/mL	MIC ([9]; ATCC49619): 0.0625 µg/mL (≈ 0.0768 µM)
CC[C@H]1OC(=O)C(C)(F)C(=O)[C@H](C)[C@@H](O[C@@H]2OC(C)CC(N(C)C)C2O)[C@](C)(OC)C[C@@H](C)CN(C)[C@H](C)[C@H]2N(CCCCn3cc(-c4cccc(N)c4)nn3)C(=O)O[C@]12C (stereo partly shown) [FSM-20797]	> 32 µg/mL	4 µg/mL (≈ 4.65 µM)	> 32 µg/mL	8 µg/mL (≈ 9.3 µM)		8 µg/mL (≈ 9.3 µM)			8 µg/mL (≈ 9.3 µM)	> 32 µg/mL	4 µg/mL (≈ 4.65 µM)	≤ 0.0156 µg/mL	4 µg/mL (≈ 4.65 µM)	8 µg/mL (≈ 9.3 µM)	32 µg/mL (≈ 37.2 µM)	0.125 µg/mL (≈ 0.145 µM)			32 µg/mL (≈ 37.2 µM)	> 32 µg/mL	MIC (S. aureus strains; [17]): 8 µg/mL (≈ 9.3 µM); MIC (S. aureus strains; [18]): > 32 µg/mL; MIC (S. aureus strains; [19]): 8 µg/mL (≈ 9.3 µM); MIC (S. aureus strains; [20]): 8 µg/mL (≈ 9.3 µM); MIC (E. faecalis strains): 1 µg/mL (≈ 1.16 µM); MIC (K. pneumoniae strains): 8 µg/mL (≈ 9.3 µM); MIC (A. baumannii strains): > 32 µg/mL; MIC (H. influenzae strains; [21]): 4 µg/mL (≈ 4.65 µM); MIC (H. influenzae strains; [22]): 16 µg/mL (≈ 18.6 µM); MIC (E. coli strains): 32 µg/mL (≈ 37.2 µM); MIC (S. pneumoniae strains; [23]): 0.25 µg/mL (≈ 0.291 µM); MIC (S. pneumoniae strains; [24]): 16 µg/mL (≈ 18.6 µM); MIC (S. pneumoniae strains; [25]): > 32 µg/mL; MIC (S. pneumoniae strains; [26]): > 32 µg/mL; MIC (S. pneumoniae strains; [27]): 0.5 µg/mL (≈ 0.581 µM)
